Experimental data published in article PMC10666288, “Unveiling the Catalytic Mechanism of a Processive Metalloaminopeptidase” (Biochemistry, 2023).
Where “and” joins values, the source holds several entries; their conditions need not be identical. Equal entries are not always repeated.

Experiments:
PaPepA [1] = target: T1, PaPepA (Pseudomonas aeruginosa, UniProt Q02RY8); assay: Isothermal titration calorimetry of metal binding; design: GG stays after cleavage) (N); made in house; host or cells: E. coli BL21(DE3)
Procedure: Purified PaPepA (100 μM) was buffer exchanged into ITC buffer (50 mM Tris, 140 mM NaCl, pH 7.4) using a Millipore Amicon Ultra-4 centrifugal unit (10 kDa MWCO). The protein was syringe-filtered through a […] and diluted to 50 μM. 3 mL solutions of filtered metal were also prepared. A 400 μM solution of MnCl2 and a 1 mM solution of MgCl2 were prepared by dilution of 1 M metal chloride stocks (Sigma) into ITC buffer.
Buffer, protein, and metal solutions were degassed. Following extensive washes with ITC buffer, the protein was loaded into the cell (volume 1.43 mL) of a VP-ITC (MicroCal) and MnCl2 or MgCl2 solution was loaded into the syringe (total volume 300 μL). Experiments were carried out using the following settings: temperature = 25 °C, duration = 4 s, spacing = 210 s, filter period = 2 s, for 35 injections (one injection of 2 μL followed by 34 injections of 8 μL). Data were analyzed using Origin(Pro), Version 2021 (OriginLab Corporation, Northampton, Massachusetts, USA), and MicroCal PEAQ-ITC analysis software (Malvern).

PaPepA [2] = target: T1, PaPepA; assay: Metal activation of Leu-pNA cleavage (metal varied, Leu-pNA fixed); type: biochemical; design: GG stays after cleavage) (N); made in house; host or cells: E. coli BL21(DE3); settings: with 2 mM Leu-pNA
Procedure: A BMG Labtech POLARstar Omega plate reader was used for activity assays and kinetic studies involving amino acids conjugated to para-nitroaniline (pNA) (Sigma) or peptides as substrates. Assays were carried out at 25 °C in clear half-area 96-well plates (Greiner Bio-One). […] For kinetic assays investigating Leu-AMC as a substrate, a SpectraMax M2E was used. Reactions were carried out using black half-area 96-well plates with clear bottoms (Greiner Bio-One). Product formation was assessed by monitoring changes in fluorescence, with the excitation wavelength set at 341 nm and emission at 441 nm. The cutoff was 420 nm. PMT gain was set to medium, with six flashes per read. […] Calibration curves of pNA concentration vs absorbance and AMC vs fluorescence were constructed, and initial rate values were divided by the slope of these calibration curves to reveal the rate of product formation over time (Table S2).
For all assays excluding pH dependence curves, buffer conditions were as follows: 100 mM HEPES, 50 mM KCl, and pH 8.0. For assays carried out under pseudo-first-order conditions, one reaction component was fixed and in excess, while the other was varied. […] For assays involving variation of aa-pNA or aa-AMC, MnCl2 was added to a final concentration of 3 mM.

PaPepA [3] = target: T1, PaPepA; assay: Solvent kinetic isotope effects; type: biochemical; design: GG stays after cleavage) (N); made in house; host or cells: E. coli BL21(DE3); settings: H2O vs 80% D2O, metal varied, Leu-pNA fixed, pH 8.0
Procedure: SKIEs were determined by plotting saturation curves in H2O or 80% D2O. […] Differences between reaction rates under initial velocity conditions were measured varying the concentration of either Leu-pNA or Mn^2+, while keeping the other component constant and in excess (at least 5× the value of KM or KACT, Scheme 2). Experiments were performed at pH 8.0 (100 mM HEPES, with 50 mM KCl). For proton inventory studies, D2O was varied from 0 to 80% in 10% increments. All proton inventory studies were carried out on the same day by using the same enzyme stock.
When calculating SKIEs, kcat and KM were obtained from the Michaelis–Menten curves in H2O. The 80% D2O Michaelis–Menten curve was fit to the following equation: [drawing 2] 2 where Fi is the fraction D2O, and EV/K and EV are the isotope effects −1 on kcat/KM and kcat, respectively.

PaPepA [4] = target: T1, PaPepA; assay: Zn2+ inhibition in the pNA assay with Mn2+; type: biochemical; design: GG stays after cleavage) (N); made in house; host or cells: E. coli BL21(DE3)
Procedure: Figure 3 PaPepA metal binding and catalysis. (A) PaPepA activity with different divalent metals assessed through kcat/KACT. Leu-pNA was present in all assays at a concentration of 2 mM. (B) The effects of Zn^2+ and Mn^2+ preincubation, followed by extensive dialysis in metal-free buffer and subsequent addition of excess Mn^2+. (C) Michaelis–Menten plots showing inhibition of PaPepA by Zn^2+. Data were fit to a noncompetitive mixed model of inhibition. (D) Representative plots of the ITC data for titrations of MnCl2 (left) and MgCl2 (right) with PaPepA. The top panel depicts raw data, and the bottom panel depicts the resulting enthalpy changes as a function of molar addition of metal as well as the best fit to a single binding site model. (E) Plot of room-temperature EPR double integrals against Mn^2+ concentration for samples without enzyme (teal dots) and in the presence of 20 μM PaPepA (purple dots). […] (F) Frozen solution EPR spectra of PaPepA in the presence of various ratios of Mn^2+: enzyme, upper box zoomed-in data without the metal in buffer control. For panels (A), (B), and (C), data are mean ± SEM across three replicates. For Figure 3D, experiments were performed in two separate biological replicates, one shown here for illustration, and all data were acquired in Figure S11. […]

PaPepA [5] = target: T1, PaPepA; settings: degassed solutions, 3 mM MnCl2, 2 mM Leu-pNA, sodium bicarbonate 0 to 5 mM
Excerpt: For assays investigating bicarbonate dependence, all buffers and stock solutions were extensively degassed prior to use.[25]

PaPepA [6] = target: T1, PaPepA; assay: biochemical
Excerpt: MnCl2 was present in excess.
concentrations of Leucine as an inhibitor.

T1 sequence (Q02RY8 whole entry): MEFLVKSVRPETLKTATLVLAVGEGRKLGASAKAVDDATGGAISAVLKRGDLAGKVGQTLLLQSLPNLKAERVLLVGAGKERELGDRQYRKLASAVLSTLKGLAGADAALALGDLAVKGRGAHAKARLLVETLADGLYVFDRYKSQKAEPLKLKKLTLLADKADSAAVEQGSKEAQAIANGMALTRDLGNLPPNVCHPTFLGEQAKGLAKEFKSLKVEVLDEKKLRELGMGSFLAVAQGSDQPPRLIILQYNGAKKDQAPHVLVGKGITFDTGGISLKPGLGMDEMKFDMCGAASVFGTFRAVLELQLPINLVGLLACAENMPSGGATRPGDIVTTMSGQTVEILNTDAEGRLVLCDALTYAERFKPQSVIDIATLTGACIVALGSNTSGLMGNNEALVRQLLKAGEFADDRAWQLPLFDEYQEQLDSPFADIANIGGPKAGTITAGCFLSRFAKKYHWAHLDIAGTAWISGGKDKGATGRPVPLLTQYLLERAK

[Mg+2] [Mg^2+]
number of metal atoms binding the protein (PaPepA [1]; ITC stoichiometry per monomer): 0.68 | Kd (PaPepA [1]; ITC, first line per metal: N 1, [PepA] 35.80 ± 1.5 (Mn) or 32.60 (Mg) µM, [Metal] 400.0 or 1000 µM): 1.84 ± 0.182 µM | Kd (PaPepA [1]; ITC, one binding site per monomer): 2.1 ± 0.3 µM | Kd (PaPepA [1]; ITC, one binding site per monomer, 25 °C, pH 7.4): 2.14 ± 0.326 µM | Kd (PaPepA [1]; ITC, second line per metal: N 1, [PepA] 47.00 or 48.00 µM, [Metal] 526.5 ± 22.5 (Mn) or 1470 (Mg) µM): 2.72 ± 0.47 µM | N (PaPepA [1]; ITC, third line per metal: N fitted): 0.679 ± 0.001 | Kd (PaPepA [1]; ITC, third line per metal: N fitted, [PepA] 47.00 or 48.00 µM, [Metal] 400.0 or 1000 µM): 1.84 ± 0.182 µM | KACT (PaPepA [2]; pH 8.0): 3 mM and 3.0 ± 0.7 mM | kcat (PaPepA [2]; pH 8.0): 0.051 ± 0.002 s^–1 | kcat/KACT (PaPepA [2]; pH 8.0): 0.017 ± 0.004 s^–1mM^–1 | KACT (PaPepA [2]; pH 8.0, listed as MgCl2): ~3 mM | ^D2Okcat (PaPepA [3]): 3.1 ± 0.1 | ^D2Okcat/KACT (PaPepA [3]): 2.3 ± 0.1

[Zn+2] [Zn^2+]
KACT (PaPepA [2]; pH 8.0): 0.02 ± 0.01 mM | kcat (PaPepA [2]; pH 8.0): 0.009 s^–1 and 0.009 ± 0.001 s^–1 | kcat/KACT (PaPepA [2]; pH 8.0): 0.5 ± 0.2 s^–1mM^–1 | KACT (PaPepA [2]; pH 8.0, as given in text): 0.02 mM | Ki (PaPepA [4]; Zn^2+ and Mn^2+ both added without preincubation, noncompetitive mixed model): 12200 nM | α (PaPepA [4]; noncompetitive model of inhibition): 5.6

O=C([O-])O.[Na+] [bicarbonate, sodium bicarbonate]
activation by bicarbonate (in words) (PaPepA [5]): not observed activation or increase in activity

CC(C)C[C@H](N)C(=O)O [leucine]
Ki (PaPepA [6]): 601000 nM
